Test results taken from patent US8153624B2, “Compounds and methods for modulating FXR” (Eli Lilly and Company, priority 2007, dated 2012).

Tests used:
Human FXR = molecular target: T1, Human FXR (Homo sapiens, UniProt Q96RI1); assay: Human FXR/FXR-Response Element Luciferase Reporter Cotransfection Assay; type: cell-based
T1 construct: expressed in transfected cells
T1 sequence (Q96RI1 1-486): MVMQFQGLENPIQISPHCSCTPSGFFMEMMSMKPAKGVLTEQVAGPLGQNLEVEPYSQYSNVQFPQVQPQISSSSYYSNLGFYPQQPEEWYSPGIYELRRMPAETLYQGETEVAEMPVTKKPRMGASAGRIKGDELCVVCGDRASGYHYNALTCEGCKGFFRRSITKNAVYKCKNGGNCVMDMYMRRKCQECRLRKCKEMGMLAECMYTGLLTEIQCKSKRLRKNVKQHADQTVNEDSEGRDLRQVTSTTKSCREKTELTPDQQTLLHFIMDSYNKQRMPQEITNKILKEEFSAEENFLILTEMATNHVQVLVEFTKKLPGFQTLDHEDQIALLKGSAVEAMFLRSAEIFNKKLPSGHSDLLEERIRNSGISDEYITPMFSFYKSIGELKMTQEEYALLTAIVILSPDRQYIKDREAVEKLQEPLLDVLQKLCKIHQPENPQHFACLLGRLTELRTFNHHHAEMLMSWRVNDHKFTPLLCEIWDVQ
Experimental: Human FXR/FXR-Response Element Luciferase Reporter Cotransfection Assay
Compounds of the present invention are tested using the Human FXR/FXR-Response Element Luciferase Reporter Cotransfection Assay. The assay is performed essentially as described in J. Biological Chem. 2006, 281 (52), 39831-39838, except that 10 μg total DNA per million cells is used. One of skill in the art is able to perform this assay without undue experimentation.

[1] = molecular target: T2, human FXR ligand-binding domain (Homo sapiens, UniProt Q96RI1); assay: FXR-SRC-1 Cofactor Recruitment Assay (Alpha Screen); type: biochemical; details: FXR-SRC-1 interaction
T2 construct: purchased Invitrogen Corporation
T2 sequence (Q96RI1 242-472 isoform Q96RI1-2 limits assumed): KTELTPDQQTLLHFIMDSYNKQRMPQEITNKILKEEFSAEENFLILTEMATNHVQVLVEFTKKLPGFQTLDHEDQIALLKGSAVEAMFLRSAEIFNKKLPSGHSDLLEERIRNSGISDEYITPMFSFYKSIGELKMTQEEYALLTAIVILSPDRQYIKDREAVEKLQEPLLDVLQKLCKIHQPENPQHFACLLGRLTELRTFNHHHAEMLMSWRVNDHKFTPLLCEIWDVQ
T2 sequence (Q15788 600-774 partner limits assumed): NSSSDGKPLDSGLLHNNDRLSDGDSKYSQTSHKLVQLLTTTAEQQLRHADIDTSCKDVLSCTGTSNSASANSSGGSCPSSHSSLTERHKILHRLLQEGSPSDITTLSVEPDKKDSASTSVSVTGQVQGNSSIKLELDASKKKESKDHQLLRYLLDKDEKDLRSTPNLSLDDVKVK
Experimental: FXR-SRC-1 Cofactor Recruitment Assay
Compounds are evaluated by an FXR-SRC-1 Cofactor Recruitment assay using the Alpha (Amplified Luminescent Proximity Homogeneous Assay) Screen technology according to the manufacturer instructions (Perkin Elmer Corporation, Norwalk, Conn., USA) at various concentrations. Mix purified 6-HIS-tagged human FXR ligand-binding domain (amino acids 242-472), purified GST-tagged human SRC-1 nuclear receptor-interacting domain (amino acids 220-394), Nickel Chelate donor beads (Perkin Elmer Corporation) and Anti-GST antibody acceptor beads (Perkin Elmer Corporation) together and aliquot 12 μL per well into 384 well plates. Add compounds in 3 μL per well for a total assay volume of 15 μL and incubate at room temperature in the dark for 4 hours. After incubation, compounds that bind FXR and induce the interaction between the FXR and SRC-1 (available from Invitrogen Corporation Carlsbad, Calif., USA) would bring the two bead types into proximity generating luminescence that is quantified. Calculate EC50 values. Exemplified compounds of the invention are found to be effective in the SRC-1 FXR interaction assay with EC50s of about 38-5200 nM.

LDLR−/− mice = assay: LDLR−/− Serum Lipid Modulation; type: in vivo; details: male LDLR−/− mice on western diet, 10 mg/kg once daily oral gavage, seven days
Experimental: LDLR−/− Serum Lipid Modulation
Acclimate animals for two weeks prior to study initiation. Maintain mice on a 12:12 hour light-dark cycle at 21° C. Provide deionized water ad libitum and maintain for two weeks on ‘western diet’ TD 88137 Diet (42% fat, 0.15% cholesterol, Harlan Teklad, Madison, Wis., USA) ad libitum. Optimize groups of five ten-week-old male LDLR−/− mice based on serum triglyceride and cholesterol levels. […] Separate lipoprotein fractions by FPLC, and quantify cholesterol with an in-line detection system. […] The colored product produced in the presence of cholesterol is monitored in the flow stream at 505 nm, and the analog voltage from the monitor is converted to a digital signal for collection and analysis. The change in voltage corresponding to change in cholesterol concentration is plotted vs. time, and the area under the curve corresponding to the elution of VLDL-C and HDL-C is calculated using Turbo Chrome® version 4.12F12 software (PerkinElmer Corporation). […]

SMILES | EC50 (Human FXR) [nM] | EC50 [1] [nM] | lowers total cholesterol (LDLR−/− mice) | lowers triglycerides (LDLR−/− mice)
O=C(O)c1ccc(N2CCC(OCc3c(-c4c(Cl)cccc4Cl)noc3C3CC3)CC2)cc1 [Example 7, 4-{4-[5-Cyclopropyl-3-(2,6-dichloro-phenyl)-isoxazol-4-ylmethoxy]-piperidin-1-yl}-benzoic acid] | 220 | ~325 | – | –
Cc1cc(N2CCC(OCc3c(-c4c(Cl)cccc4Cl)noc3C3CC3)CC2)ccc1C(=O)O [Example 9, 4-{4-[5-Cyclopropyl-3-(2,6-dichloro-phenyl)-isoxazol-4-ylmethoxy]-piperidin-1-yl}-2-methyl-benzoic acid] | – | – | about 76% | about 75%
